Experimental data reported in patent US11479555B2, “Substituted 1,2-dihydro-3H-pyrazolo[3,4-D]pyrimidin-3-ones as inhibitors of WEE-1 kinase” (Newave Pharmaceutical Inc., priority 2018, dated 2022).
Values belong to the compound of their own block, whether it stands above or below them.

Experiments:
WEE1 = conditions: inhibits WEE1 activity, induces DNA damage and G2 checkpoint escape; read-out: EC50 in cell based assays; cited from earlier work
A498 = test: In vitro cellular anti-proliferation assay (ATPlite), A498; type: cell-based; conditions: Homo sapiens, about 72 hours, 5% FBS
Protocol: (§1) Cell antiproliferation was assayed by PerkinElmer ATPlite™ Luminescence Assay System. Briefly, the various test cancer cell lines were plated at a density of about 1×10^4 cells per well in Costar 96-well plates, and were incubated with different concentrations of compounds for about 72 hours in medium supplemented with 5% FBS. One lyophilized substrate solution vial was then reconstituted by adding 5 mL of substrate buffer solution, and was agitated gently until the solution was homogeneous. About 50 μL of mammalian cell lysis solution was added to 100 μL of cell suspension per well of a microplate, and the plate was shaken for about five minutes in an orbital shaker at ˜700 rpm. This procedure was used to lyse the cells and to stabilize the ATP. Next, 50 μL substrate solution was added to the wells and microplate was shaken for five minutes in an orbital shaker at ˜700 rpm. Finally, the luminescence was measured by a PerkinElmer TopCount® Microplate Scintillation Counter. Such assays, carried out with a range of doses of test compounds, allowed the determination of the cellular anti-antiproliferative IC50 of the compounds of the present invention.
(§2) The following table lists the LoVo IC50 values of another study for certain compounds of the invention.

SK-MES-1 = test: In vitro cellular anti-proliferation assay (ATPlite), SK-MES-1; type: cell-based; conditions: Homo sapiens, about 72 hours, 5% FBS
Protocol: as §1, §2

Mice CNS PK study = type: in vivo; conditions: CD-1 mouse; for AUC(0-t): plasma, read-out: Plasma AUClast; for Kp: brain/plasma (printed as Brain/Blood), read-out: Brain/Blood Ratio
Protocol: The pharmacokinetics of compounds were evaluated in CD-1 mouse via Intravenous and Oral Administration. The iv dose was administered as a slow bolus in the Jugular vein, and oral doses were administered by gavage. The formulation for IV dosing is 5% DMSO in “20% HPBCD in water, and the PO formulation is 2.5% DMSO, 10% EtOH, 20% Cremphor EL, 67.5% D5W. The PK time point for the IV arm is 5, 15, 30 min, 1, 2, 4, 6, 8, 12, 24 hours post dose, and for PO arm is 15, 30 min, 1, 2, 4, 6, 8, 12, 24 hours post dose.
Plasma Samples Processing and Storage: Approximately 0.2 mL blood will be collected at each time point. Keep blood at room temperature and collect plasma within 15 min by centrifugation at 4000 g for 5 minutes in a 4° C. centrifuge. Plasma samples will be stored in polypropylene tubes. The plasma samples will be stored in a freezer at −75±15° C. prior to analysis.
Brain Samples Processing and Storage: The mice will be fully exsanguinated prior to tissue collection. Procedure: open chest cavity, cut ventricle and perform a gentle iv saline flush (saline flush volume ˜10 ml) with the animal placed head down at a 45 degree angle to facilitate blood removal. Tissue samples will be collected at adopted time point, quick frozen in ice box and kept at −75±15° C. All tissue samples will be weighted and homogenized with water by tissue weight (g) to water volume (mL) at ratio 1:3 before analysis. The actual concentration is the detected value multiplied by the dilution factor.
Concentrations of compounds in the plasma samples will be analyzed using a LC-MS/MS method. WinNonlin (Phoenix™, version 6.1) or other similar software will be used for pharmacokinetic calculations. The following pharmacokinetic parameters will be calculated, whenever possible from the plasma concentration versus time data: IV administration: C0, CL, Vd, T1/2, AUCinf, AUClast, MRT, Number of Points for Regression; PO administration: Cmax, Tmax, T1/2, AUCinf, AUClast, F %, Number of Points for Regression. The pharmacokinetic data will be described using descriptive statistics such as mean, standard deviation. Additional pharmacokinetic or statistical analysis may be performed at the discretion of the contributing scientist, and will be documented in the data summary.

LoVo = test: In vitro cellular anti-proliferation assay (ATPlite), LoVo; type: cell-based; conditions: Homo sapiens, about 72 hours, 5% FBS
Protocol: as §1, §2

tumor = test: In vivo xenograft study; parameters: species or system CB.17 SCID mice; conditions: 7 dose at 100 mg/kg, day 18
From the text: The CB.17 SCID mice are obtained at age 6-8 weeks from vendors and acclimated for a minimum 7-day period. The cancer cells are then implanted into the […] mice. Depending on the specific tumor type, tumors are typically detectable about two weeks following implantation. When tumor sizes reach ˜100-200 mm^3, the animals with appreciable tumor size and shape are randomly assigned into groups of 8 mice each, including one vehicle control group and treatment groups. Dosing varies depending on the purpose and length of each study, which typically proceeds for about 3-4 weeks. Tumor sizes and body weight are typically measured three times per week. In addition to the determination of tumor size changes, the last tumor measurement is used to generate the tumor size change ratio (T/C value), a standard metric developed by the National Cancer Institute for xenograft tumor evaluation. […] When tumor regression occurred (ΔT<0), however, the following formula is used: % T/T0=100×ΔT/T0.

Wee1 kinase = Wee1 kinase (Homo sapiens (Human), UniProt P30291); test: Wee-1 biochemical assay; conditions: another study
Sequence of Wee1 kinase (P30291 whole entry): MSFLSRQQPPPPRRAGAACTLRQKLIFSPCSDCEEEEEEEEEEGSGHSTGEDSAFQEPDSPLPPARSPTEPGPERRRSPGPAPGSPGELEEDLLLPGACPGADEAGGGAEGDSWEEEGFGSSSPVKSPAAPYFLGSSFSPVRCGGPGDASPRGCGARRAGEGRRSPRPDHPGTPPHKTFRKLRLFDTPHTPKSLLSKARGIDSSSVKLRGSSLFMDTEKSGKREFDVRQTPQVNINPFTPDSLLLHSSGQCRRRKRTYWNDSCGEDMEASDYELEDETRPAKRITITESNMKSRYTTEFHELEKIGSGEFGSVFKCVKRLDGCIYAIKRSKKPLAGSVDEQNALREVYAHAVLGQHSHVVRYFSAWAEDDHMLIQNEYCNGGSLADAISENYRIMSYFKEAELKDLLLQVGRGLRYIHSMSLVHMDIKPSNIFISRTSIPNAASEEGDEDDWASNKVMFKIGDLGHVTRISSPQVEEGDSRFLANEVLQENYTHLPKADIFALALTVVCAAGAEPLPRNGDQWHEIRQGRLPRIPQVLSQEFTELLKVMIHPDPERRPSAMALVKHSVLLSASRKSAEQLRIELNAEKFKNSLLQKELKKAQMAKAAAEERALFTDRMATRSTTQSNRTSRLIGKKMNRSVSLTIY
Protocol: In determination of the Weel kinase activity, a synthetic peptide, Poly(Lys,Tyr) Hydrobromide (Lys:Tyr (4:1)) bought from Sigma was used as the substrate. The amount of the reaction mixture was 21.1 μL; and the composition of the reaction buffer was 50 mM Tris-HCl buffer (pH 7.4)/10 mM magnesium chloride/1 mM dithiothreitol. The purified Weel kinase, 2.5 μg of the substrate peptide, 10 μM of non-labeled adenosine triphosphate (ATP) and 1 μCi of [γ-^33P]-labeled ATP (2500 Ci/mmol or more) were added to it, and incubated at 30° C. for 30 minutes. Next, 10 μL of 350 mM phosphate buffer was added to the reaction mixture to stop the reaction. The substrate peptide was adsorbed by a P81 paper filter 96-well plate, then washed a few times with 130 mM phosphate buffer, and its radioactivity was counted with a liquid scintillation counter. The [γ-^33P]-labeled ATP was bought from Amersham Bioscience. To add the test compound to the reaction system, the compound was diluted with dimethylsulfoxide (DMSO) to prepare a series of dilutions. 1.1 μL of each dilution was added to the reaction system. As a control, 1.1 μL of DMSO was added to the reaction system. Such assays, carried out with a range of doses of test compounds, allow the determination of the Wee1 IC50 of the compounds of the present invention

IC50 (SK-MES-1): < 250 nM
Brain AUClast (Mice CNS PK study): 524 ng·h/mL
AUC(0-t) (Mice CNS PK study): 9000 ng·h/mL
Kp (Mice CNS PK study): 0.058
IC50 (LoVo): < 300 nM
Structure (SMILES): C=CCn1c(=O)c2cnc(Nc3ccc(N4CCN(C)CC4)cc3)nc2n1-c1cccc(C(C)(C)O)n1 [AZD1775, reference compound]
IC50 (A498): < 500 nM

Structure (SMILES): C=CCn1c(=O)c2cnc(Nc3cnn(C4CCN(C5CCC(F)(F)CC5)CC4)c3)nc2n1-c1cccc(C(C)(C)O)n1.Cl [Example 3, 6-([1-[1-(4,4-difluorocyclohexyl)piperidin-4-yl]-1H-pyrazol-4-yl]amino)-1-[6-(2-hydroxypropan-2-yl)pyridin-2-yl]-2-(prop-2-en-1-yl)-1H,2H,3H-pyrazolo[3,4-d]pyrimidin-3-one Hydrochloride]
tumor regression (tumor): complete regression of the tumor

Structure (SMILES): CC(C)n1c(=O)c2cnc(Nc3ccc(N4CCN(C)CC4)cc3)nc2n1-c1cccc(C(C)(C)C(F)(F)F)n1 [Example 11, 2-isopropyl-6-((4-(4-methylpiperazin-1-yl)phenyl)amino)-1-(6-(1,1,1-trifluoro-2-methylpropan-2-yl)pyridin-2-yl)-1,2-dihydro-3H-pyrazolo[3,4-d]pyrimidin-3-one]
IC50 (A498): < 500 nM
IC50 (SK-MES-1): < 250 nM
IC50 (Wee1 kinase): < 1.5 nM
Brain AUClast (Mice CNS PK study): 12,002 h*ng/mL
AUC(0-t) (Mice CNS PK study): 7510 ng·h/mL
Kp (Mice CNS PK study): 1.6
IC50 (LoVo): < 300 nM

Structure (SMILES): CC(C)n1c(=O)c2cnc(Nc3ccc(N4CCN(C)CC4)cc3)nc2n1-c1cccc(C(C)(C)F)n1 [Example 13, 1-(6-(2-fluoropropan-2-yl)pyridin-2-yl)-2-isopropyl-6-((4-(4-methylpiperazin-1-yl)phenyl)amino)-1,2-dihydro-3H-pyrazolo[3,4-d]pyrimidin-3-one]
IC50 (A498): < 500 nM
IC50 (SK-MES-1): < 250 nM
IC50 (Wee1 kinase): < 1.5 nM
Brain AUClast (Mice CNS PK study): 11,907 h*ng/mL
AUC(0-t) (Mice CNS PK study): 8660 ng·h/mL
Kp (Mice CNS PK study): 1.38
IC50 (LoVo): < 300 nM

Structure (SMILES): CC(C)n1c(=O)c2cnc(Nc3ccc(N4CCN(C)CC4)cc3)nc2n1-c1cccc(C2CC2)n1 [Example 15, 1-(6-cyclopropylpyridin-2-yl)-2-isopropyl-6-((4-(4-methylpiperazin-1-yl)phenyl)amino)-1,2-dihydro-3H-pyrazolo[3,4-d]pyrimidin-3-one]
IC50 (A498): < 500 nM
IC50 (SK-MES-1): < 250 nM
IC50 (Wee1 kinase): < 1.5 nM
Brain AUClast (Mice CNS PK study): 4,910 h*ng/mL
AUC(0-t) (Mice CNS PK study): 4710 ng·h/mL
Kp (Mice CNS PK study): 1
IC50 (LoVo): < 300 nM
